The record followed here is ChEMBL document CHEMBL5584331, “Methyl-Transferase-Like Protein 16 (METTL16): The Intriguing Journey of a Key Epitranscriptomic Player Becoming an Emerging Biological Target” (J Med Chem, 2024).

For one assay, the system named is NOMO-1. The assay is described as follows: Antiproliferative activity against human NOMO-1 cells assessed as reduction in cell viability incubated for 48 hrs by MTT assay. Format: functional, cell-based. To be noted: NOMO-1, 48 h.
The target in assay [1] is N6-adenosine-methyltransferase catalytic subunit (Homo sapiens, UniProt Q86U44). As to the kind of experiment: Binding affinity to METTL3 (unknown origin) assessed as dissociation constant.
Chain of N6-adenosine-methyltransferase catalytic subunit (Q86U44 whole entry): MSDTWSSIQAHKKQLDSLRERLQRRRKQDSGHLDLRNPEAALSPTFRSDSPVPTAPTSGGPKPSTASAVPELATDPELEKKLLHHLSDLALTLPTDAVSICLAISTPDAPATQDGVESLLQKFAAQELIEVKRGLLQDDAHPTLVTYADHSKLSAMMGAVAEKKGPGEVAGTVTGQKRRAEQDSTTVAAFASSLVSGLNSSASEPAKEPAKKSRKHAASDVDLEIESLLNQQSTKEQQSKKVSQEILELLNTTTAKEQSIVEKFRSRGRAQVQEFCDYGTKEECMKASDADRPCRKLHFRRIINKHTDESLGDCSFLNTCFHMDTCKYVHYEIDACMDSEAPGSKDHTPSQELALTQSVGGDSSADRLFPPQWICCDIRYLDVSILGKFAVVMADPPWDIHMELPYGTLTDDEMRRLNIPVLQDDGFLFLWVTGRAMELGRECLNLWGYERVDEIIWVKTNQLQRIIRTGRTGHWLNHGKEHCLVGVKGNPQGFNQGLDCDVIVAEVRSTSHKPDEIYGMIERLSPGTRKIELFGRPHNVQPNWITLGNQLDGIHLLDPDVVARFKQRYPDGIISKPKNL

Consider `N#Cc1ccc(Cn2ccc3c4c(N)nc(N)nc4ccc32)cc1`, for which the IC50 in the assay on NOMO-1 turned out to be 20.6 nM.

With `C/C(=N\NC(N)=S)c1ccc(F)cc1`, the Kd in assay [1] was found to be 2840 nM.

As to `C/C(=N\N=C(/N)S)c1ccccc1` [PHENYL(METHYL)THIOSEMICARBAZONE], the Kd in assay [1] was 3310 nM.

A word on the IC50: it is the point on the concentration scale where inhibition reaches its midpoint. What is called Kd is the constant that tells how readily two partners part at equilibrium.
